# In patent publication US20130123168A1, “HUMANIN AND HUMANIN-ANALOGUES FOR THE MANAGEMENT OF ATHEROSCLEROSIS” (The Regents of the University of California, priority 2011, published 2013):
# Entries after “also recorded” stand apart in the source; their conditions may differ.
# Tests used:
# NIT cells = conditions: cited from earlier work
# [1] = system: atherosclerotic plaques in proximal aorta; assay: Morphometric analysis of plaque size in proximal aorta cross sections; format: in vivo, mice; conditions: IP 0.4 mg/kg/day, 16 weeks
# [2] = system: atherosclerotic plaque in the aortic arch; assay: TUNEL staining of apoptotic cells in plaques of the aortic arch; format: in vivo; conditions: Group 4: ApoE-deficient mice, high cholesterol diet
# Procedure: The effect of HNGF6A on mice was studied in 4 different animal groups (n=12 per group); Group 1: C57BL/6 feed normal diet+intraperitoneal (IP) saline, Group 2: C57BL/6 feed normal diet+IP HNGF6A, Group 3: ApoE-deficient feed high cholesterol diet+IP saline, and Group 4: ApoE-deficient feed high cholesterol diet+IP HNGF6A (Group 4). Experiment was conducted over the course of 16 weeks. Female C57BL/6 mice and Apo E-deficient mice were obtained at the age of 4 weeks from Jackson Laboratory Animals had free access to water, were maintained at 24° C., and kept at a 12 hr light/dark cycle. Depending on the study group, the mice were treated with a normal diet or high cholesterol diet (HC, 0.15% cholesterol and 42% milk fat by weight, TD88137 or “Western diet”; Harlan Teklad) and received intraperitoneal injection (IP) of saline or HNGF6A (glycine variant of HN, 0.4 mg/kg/day, Peptide International, Louisville, Ky.) for 16 weeks. […] Blood samples were collected by cardiac puncture. Terminal deoxynucleotidyl transferase dUTP nick end labeling (TUNEL) was performed using the in situ Apoptosis Detection Kit (S7100-KIT; Chemicon). The procedure was performed following the manufacturers' protocol. […] The number of positive cells in atherosclerotic plaque was counted using x400 magnification. […] Data was expressed as mean±SEM. […]
# [3] = system: human aortic endothelial cells (HAECs); assay: Cellular ceramide levels by HPLC/MS/MS after Ox-LDL; format: cell-based; conditions: 0.1 μM overnight, then Ox-LDL 100 μg/ml for 6 hours
# Procedure: HAECs were plated on glass cover slips and incubated overnight with or without added HN (0.1 μM). The cells were then exposed to Ox-LDL (100 μg/ml; Biomedical Technologies Inc.) for 6 hours. Cells were then scraped into PBS, pelleted and frozen in liquid nitrogen. These samples were sent to MUSC-lipidomics core (Lipidomics Analytical Unit) for processing to detect and quantify individual ceramide species by HPLC/MS/MS.
# [4] = system: human aortic endothelial cells (HAECs); assay: TUNEL assay of Ox-LDL induced apoptosis in HAEC; format: cell-based; conditions: pre-incubated overnight with 0.1 μM, then 100 μg/ml Ox-LDL for 6 hours
# Procedure: To accomplish this, a TUNEL assay was applied to measure the levels of apoptosis in HAECs treated with or without HN prior to exposure with Ox-LDL (FIG. 2). HAECs were plated on glass cover slips and incubated overnight with or without added HN (0.1 μM). The cells were then exposed to Ox-LDL (100 μg/ml; Biomedical Technologies Inc.) for 6 hours at 37° C. in the absence of HN. Apoptotic cells were quantified by TUNEL assay using the In Situ Death Detection Kit® (Roche Applied Science), mounted in SlowFade containing DAPI (Invitrogen) and observed by flourescent microscope. Apoptotic cells were defined based in morphological changes in the nuclei and the fluorescent intensity after TUNEL staining. The apoptotic index (AI)=(number of apoptotic cells)/(total number of cells)
# [5] = system: human aortic endothelial cells (HAECs); assay: Ox-LDL induced ROS production, dihydroethidium (DHE) fluorescence; format: cell-based
# Procedure: Prior studies have reported that treatment of vascular endothelial cells with oxidized low density lipoprotein (LDL) stimulates reactive oxygen species (ROS) formation. To test whether humanin (HN) affects Ox-LDL induced ROS production in endothelial cells, the fluorescent probe dihydroethidium was utilized in order to detect superoxide in living cells. DHE fluorescence was measured in human aortic endothelial cells (HAECs) preincubated with HN and subsequently exposed to Ox-LDL. Intracellular ROS production was monitored by following the conversion of the oxidant sensitive dye dihydroethidine to fluorescent ethidium.
# To accomplish this, as described in Bachar et al. (2010) Cardiovasc. Res. 88(2):360-6 (incorporated by reference in its entirety). […] Fluorescent images were then taken with an inverted fluorescent microscope (Olympus IX70) at 15× magnification using appropriate filters fro ethidium fluorescence. Ten to twelve non-overlapping images in each culture dish were acquired and quantified by image analysis using Metamorph software (Molecular Devices). Only those cells whose fluorescence exceeded twice the basal level of fluorescence of non-treated cells were used for quantification of DHE fluorescence. Values are expressed as average relative fluorescence units for n≧100 cells per experimental condition in 2 independent experiments. […]
substance,measurement,setting,value
F6AK21A-HNG: SEQ ID NO:17 MAPRGASCLLLLTGEIDLPVARRA (listed as Homo sapiens),potency compared to humanin in promoting survival and activating STAT-3 and ERK,NIT cells,even greater potency
"HNGF6A: HN analogue, SEQ ID NO:16 MAPRGASCLLLLTGEIDLPVKRRA (listed as Homo sapiens)",presence of plaque in aorta,"[1]; Group 2: C57BL/6 mice, normal diet, 0.4 mg/kg/day",Plaques were not visible; also recorded: no plaque was apparent
same,plaque size,"[1]; Group 4: ApoE-deficient mice, high cholesterol diet",0.01±0.003 mm^2
same,potency compared to humanin in promoting survival and activating STAT-3 and ERK,NIT cells,even greater potency
same,numbers of apoptotic cells in plaques compared to Group 3 (in words),[2]; IP,significantly decreased
same,number of apoptotic cells in plaques in the aortic arch,"[2]; IP 0.4 mg/kg/day, 16 weeks, mean±SEM",84±17 cells/mm^2
Z-FIN: SEQ ID NO:18 MAKRGLNCLPHQVSEIDLSVQKRI (listed as Homo sapiens),potency compared to humanin in promoting survival and activating STAT-3 and ERK,NIT cells,two-fold greater potency than humanin
humanin (MAPRGFSCLLLLTSEIDLPVKRRA; listed as Homo sapiens) [HN],"total cellular amount of ceramides, including C16-ceramide",[3],decrease
same,relative decrease in apoptosis compared to cells without pretreatment,[4],more than 50%
same,decrease in ROS production,"[5]; HN pretreatment overnight prior to Ox-LDL (100 μg/ml, 30 min) exposure",approximately 50%
same,"decrease in Ox-LDL induced ROS formation, dose dependence",[5]; HN titration,dose-dependent manner
